Some results are limits rather than exact numbers.

Test [1] concerns the target Epidermal growth factor receptor [T790M,L858R] (Homo sapiens, UniProt P00533, L858R/T790M). Kind of test: HTRF-Based EGFR Biochemical Assays. The method, then: (§1) EGFR biochemical activity measurements were carried out using the homogeneous time-resolved fluorescence (HTRF) assay (Cisbio). Inhibitors and DMSO normalizations were first dispensed to empty black low-volume 384-well plates (Corning) with D300 digital liquid dispenser (HP). All reactions were carried out at room temperature and solutions were added to plates with a Multidrop Combi Reagent Dispenser (ThermoFisher). The reaction mixture (10 μL final volume) contained 1 μM tyrosine kinase peptide-biotin substrate and mutant EGFR in a reaction buffer (50 mM HEPES pH 7,0, 5 mM MgCl2,1 mM MnCl2, 0.01% BSA, 2 mM TCEP, 0.1 mM NaVO4). Enzyme concentrations were adjusted to accommodate varying kinase activities (L858R 0.1 nM, L858R!T790M 0,02 nM). Enzyme reaction solution (2× concentrations, 5 μL) was added to 384-well plates containing compounds and incubated for 30 mins. Enzyme reactions were initiated with the addition of […] of ATP to a final concentration of 100 μM and reacted for 20 mins. Reactions were quenched with the addition of 10 μL of phospho-tyrosine antibody-Europium(III) cryptate (1-to-180 volume ratio) and Streptavidin-XL665 (46.7 nM) in EDTA-containing detection buffer, then incubated at room temperature for 1 hour, and read with a PHERAstar plate reader (excitation =337 nm, emission =620 nm and 665 nm).
(Time-resolved FRET reads energy transfer from a long-lived donor to a nearby acceptor.)

The target of test [2] is Epidermal growth factor receptor [L858R] (Homo sapiens, UniProt P00533, L858R). Briefly: HTRF-Based EGFR Biochemical Assays. The method, then: as §1
Chain of Epidermal growth factor receptor [L858R] (P00533 25-1210 L858R limits assumed): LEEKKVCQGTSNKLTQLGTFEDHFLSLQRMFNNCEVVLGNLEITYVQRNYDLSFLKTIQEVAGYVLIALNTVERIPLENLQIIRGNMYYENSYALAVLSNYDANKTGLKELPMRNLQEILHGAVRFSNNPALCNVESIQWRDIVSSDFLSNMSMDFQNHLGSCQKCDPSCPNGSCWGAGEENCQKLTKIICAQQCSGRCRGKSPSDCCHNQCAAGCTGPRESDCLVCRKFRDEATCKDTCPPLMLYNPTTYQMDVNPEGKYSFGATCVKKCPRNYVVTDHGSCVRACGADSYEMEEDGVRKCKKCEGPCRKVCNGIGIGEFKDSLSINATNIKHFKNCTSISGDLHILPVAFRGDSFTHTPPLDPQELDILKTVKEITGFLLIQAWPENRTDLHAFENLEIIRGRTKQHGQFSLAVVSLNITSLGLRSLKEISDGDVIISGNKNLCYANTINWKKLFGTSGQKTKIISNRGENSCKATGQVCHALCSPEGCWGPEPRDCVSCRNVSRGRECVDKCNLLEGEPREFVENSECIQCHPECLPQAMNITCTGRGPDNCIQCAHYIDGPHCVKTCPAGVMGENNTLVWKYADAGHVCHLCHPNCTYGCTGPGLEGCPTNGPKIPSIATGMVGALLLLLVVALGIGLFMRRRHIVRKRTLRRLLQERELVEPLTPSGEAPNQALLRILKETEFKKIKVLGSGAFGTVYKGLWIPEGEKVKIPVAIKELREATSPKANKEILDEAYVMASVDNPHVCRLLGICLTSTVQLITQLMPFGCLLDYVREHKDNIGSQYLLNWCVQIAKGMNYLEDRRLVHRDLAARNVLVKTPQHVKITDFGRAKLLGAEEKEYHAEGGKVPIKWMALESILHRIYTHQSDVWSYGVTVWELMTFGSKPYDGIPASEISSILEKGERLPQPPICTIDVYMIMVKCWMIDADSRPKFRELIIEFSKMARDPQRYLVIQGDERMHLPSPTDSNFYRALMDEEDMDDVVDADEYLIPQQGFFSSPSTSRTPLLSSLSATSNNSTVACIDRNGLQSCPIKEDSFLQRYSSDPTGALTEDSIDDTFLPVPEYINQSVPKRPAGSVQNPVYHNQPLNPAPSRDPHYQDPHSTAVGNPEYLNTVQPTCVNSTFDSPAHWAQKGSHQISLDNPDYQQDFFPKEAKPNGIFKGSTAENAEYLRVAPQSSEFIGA

Chain of Epidermal growth factor receptor [T790M,L858R] (P00533 25-1210 T790M/L858R limits assumed): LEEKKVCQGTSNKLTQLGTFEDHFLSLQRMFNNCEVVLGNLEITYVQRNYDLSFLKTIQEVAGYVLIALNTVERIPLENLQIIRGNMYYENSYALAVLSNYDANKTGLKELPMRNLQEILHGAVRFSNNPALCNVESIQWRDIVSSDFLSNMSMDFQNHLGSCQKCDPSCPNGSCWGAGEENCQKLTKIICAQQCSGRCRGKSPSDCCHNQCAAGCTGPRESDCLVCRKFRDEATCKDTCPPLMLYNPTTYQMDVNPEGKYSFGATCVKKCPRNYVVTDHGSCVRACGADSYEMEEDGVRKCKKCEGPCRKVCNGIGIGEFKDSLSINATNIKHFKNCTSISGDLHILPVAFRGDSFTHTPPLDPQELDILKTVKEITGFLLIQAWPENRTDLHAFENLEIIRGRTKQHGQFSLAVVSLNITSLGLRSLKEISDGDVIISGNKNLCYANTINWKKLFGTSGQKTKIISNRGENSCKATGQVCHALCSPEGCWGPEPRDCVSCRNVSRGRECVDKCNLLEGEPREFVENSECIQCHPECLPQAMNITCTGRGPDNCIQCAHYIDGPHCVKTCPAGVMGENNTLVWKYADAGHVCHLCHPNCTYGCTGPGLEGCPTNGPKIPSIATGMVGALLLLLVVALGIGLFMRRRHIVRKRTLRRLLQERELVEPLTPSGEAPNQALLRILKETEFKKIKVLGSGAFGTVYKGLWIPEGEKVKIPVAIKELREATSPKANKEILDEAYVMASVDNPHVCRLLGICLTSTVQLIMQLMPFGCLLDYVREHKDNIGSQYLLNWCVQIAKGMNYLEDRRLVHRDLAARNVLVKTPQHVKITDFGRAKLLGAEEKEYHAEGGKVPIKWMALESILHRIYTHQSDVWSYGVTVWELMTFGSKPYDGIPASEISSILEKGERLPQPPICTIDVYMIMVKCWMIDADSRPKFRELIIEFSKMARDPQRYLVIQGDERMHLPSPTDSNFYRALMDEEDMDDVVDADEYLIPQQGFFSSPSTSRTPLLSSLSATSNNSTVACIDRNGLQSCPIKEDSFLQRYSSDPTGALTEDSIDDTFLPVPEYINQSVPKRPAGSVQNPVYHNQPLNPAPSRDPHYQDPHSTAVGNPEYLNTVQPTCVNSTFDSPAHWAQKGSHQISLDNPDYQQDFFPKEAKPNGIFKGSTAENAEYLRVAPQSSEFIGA

For the compound `O=C(Nc1ccccn1)C(c1cccc(F)c1)N1Cc2ccc(Br)nc2C1=O` (stereo not given) [US12377080, Compound 5], the half-inhibitory concentration (IC50) in test [1] was 114 nM; in test [2], > 1000 nM.
For `O=C(Nc1nccs1)C(c1cccc(F)c1)N1Cc2cnc(Br)cc2C1=O` (stereo not given) [US12377080, Compound 1], the IC50 was 104 nM in test [1] and > 1000 nM in test [2].
For `O=C(Nc1ccccn1)C(c1cccc(F)c1)N1Cc2ncc(Br)cc2C1=O` (stereo not given) [US12377080, Compound 3], in that order: 40 nM and > 1000 nM.
For `O=C(Nc1nccs1)C(c1cccc(F)c1)N1Cc2ccc(Br)nc2C1=O` (stereo not given) [US12377080, Compound 4], in that order: 14 nM and > 1000 nM.
For `O=C(Nc1nccs1)C(c1cccc(F)c1)N1Cc2ncc(Br)cc2C1=O` (stereo not given) [US12377080, Compound 2] the same measures were 15 nM and 318 nM.

A word on the IC50: it is the concentration that gives 50% inhibition. A low value points to higher potency.

(Values after BindingDB's records for patent US12377080 (Dana-Farber Cancer Institute, 2025).)
